We go through 4 compounds from patent US20230257385A1, “SALT AND SOLID FORMS OF TABERNANTHALOG” (priority 2021, published 2023).

Where a name gives a salt, the structure may show the parent alone.

Assay type in all cases: physicochemical
Data set [1] in a line: Standing of solid forms over time (form by XRPD). An excerpt:
FIG. 844 depicts the XRPD profile of Experiment 1-Sample D2 (Tabernanthalog·Sorbate, Form A).

A short description of data set [2]: Thermal study: glass transition temperature (Tg) of amorphous monofumarate and sorbate. As for the experimental part:
Each salt was analysed by DSC and TGA to determine the Tg of the amorphous form. Amorphous forms were generated by thermocycling the salt past the melt temperature, cooling the sample, and once cooled the samples were reheated. Open pan and sealed pan DSC were utilised, open pan DSC were heated past the melt event, cooled, and left to stand under ambient conditions overnight.
Sealed pans were immediately cycled with no time left to stand.
TGA (open pan) samples were analysed by thermocycle, with no time for the sample to stand under ambient conditions.
The amorphous forms were generated in these studies and characterised with their Tg being measured.
A hot stage microscope heating block was used to generate the amorphous phase in-situ, to allow analysis by XRPD. A silicon XRPD sample plate was loaded with the appropriate salt. The plate was heated past the melt event, removed from the hot stage microscope block and cooled to ambient in air and analysed by XRPD to ensure that the amorphous form was generated. The amorphous material was then analysed by ^1H NMR and LC-MS to ensure there was no change in chemical composition.
Two DSC pans were charge with the appropriate salt (Tabernanthalog·Sorbate, A1270−076-A1 and Tabernanthalog·Monofumarate, Tabernanthalog·Monofumarate), the first DSC pan was not sealed (open pan DSC), the second was sealed (hermetic sealed pan DSC). The open pan DSC was cycled from 20° C. to just after the melt event for each, cooled to −20° C. and left to stand under ambient conditions over night. The open pan DSC was then heated to just before the thermal degradation event (Tabernanthalog·Sorbate ca. 160° C., Tabernanthalog·Monofumarate ca. 210° C.) The hermetic sealed DSC was heated from 20° C. to just after the melt event, cooled to −20° C. then headed to just before the same degradation event.
Two TGA crucibles were charged with the appropriate salt (Tabemanthalog·Sorbate, A1270-076-A1, Tabernanthalog·Monofumarate, Tabernanthalog·Monofumarate), both were thermocycled from 20° C. to past the melt event and then cooled to −20° C., each pan was then immediately heated to just before the degradation event to measure the Tg event.

The nature of data set [3]: Amorphous study (freeze drying, evaporation, spray drying, bead milling) of monofumarate and sorbate. An excerpt: The purpose of this study was to generate amorphous material to be characterized and used in water activity studies. To achieve this, the two salts were exposed to a variety of techniques in attempts to generate the amorphous forms, including freeze drying, evaporation, vacuum desiccation and cryodesiccation spray drying. These techniques were not successful for the two salts Tabernanthalog·Monofumarate and Tabernanthalog·Sorbate.
Bead milling was attempted to generate the amorphous form of Tabernanthalog·Sorbate (Tabernanthalog·Sorbate, Form A). The salt underwent neat milling and separately with the addition of tetradecafluorohexane (TDFH). The following experiments were performed: Experiment 6-Sample A1 (30 Hz, 2 h), Experiment 6-Sample A2 (30 Hz, 5.5 h) and Experiment 6-Sample A3 (30 Hz 1 h, TDFH), the products from each experiment was analysed by XRPD to determine the extent of crystallinity (FIG. 812). None of the experiments provided amorphous material.
Each salt was charged to a 7 ml vial (50 mg, 1.0 wt). To the vial containing Tabernanthalog·Monofumarate (Tabernanthalog·Monofumarate), was charged water (10.0 vol), to fully dissolve the sample. Tabernanthalog·Sorbate (A1270-076-A1) was taken-up in ethanol/water (15% v/v, 10 vol), a further charge of water (1.0 ml), was added to ensure that the sample dissolved.
Vials containing the salt solutions were placed on the freeze drier apparatus overnight, and the cryo-desiccated products were recovered the following morning and analysed by XRPD each product remained crystalline.
Tabernanthalog·Monofumarate (A1272−082-A2, 51.1 mg, 1.0 wt) was charged to a 7 ml scintillation vial followed by THE (2 ml, […]), the suspension was heated to 50° C., until full dissolution was observed. The vial was stoppered by foil and a pin hole was pierced in the top. The vial was located under a steady N2 stream.
Tabernanthalog·Sorbate (A1270−076-A1, 99.4 mg, 1.0 wt) was charged to a 7 ml scintillation vial, followed by hexafluoroisopropanol (HFIPA, 5.0 vol, 0.5 ml), after which, the sample fully dissolved. The cap was replaced by foil and pierced on the top. Solvent was allowed to evaporate, to afford a dry, brown solid that was analysed by XRPD yielding crystalline pattern #7. Sample were dried under N2 stream for 5 h and reanalysed by XRPD, remaining as pattern #7
Tabernanthalog·Sorbate (A1270−076-A1, 50.0 mg, 1.0 wt) was charged to a 7 ml scintillation vial followed by hexafluoroisopropanol (HFIPA, 0.5 ml, 10 vol), to yield a clear solution. The solution was concentrated to dryness, by rotary evaporation, yielding an oil, that was allowed to stand undisturbed overnight.
Tabernanthalog·Sorbate (A1270−076-A1, 50.0 mg, 1.0 wt) was charged to a 7 ml scintillation vial, followed by methanol (300 μl, 6.0 vol). The solution was clarified by filtration into a 7 ml scintillation vial, containing diethyl ether (1.0 ml, 20.0 vol).
Tabernanthalog·Sorbate (A1270−076-A1, 102 mg, 1 wt) was charged to a 7.0 ml scintillation vial followed by methanol (1.9 ml, 19.0 vol). The solution was loaded into the spray drier apparatus.
The procedure yielded a brown powder (30 mg, 30% th.).
Tabernanthalog·Sorbate (A1270-076-A1, Form A) was charged to a 1.5 ml steel milling-vessel with a single 5 mm ball bearing. The sample was milled for 5.5 h at 30 Hz and yielded an off-white powder, that was analysed by XRPD, no change in crystallinity.

Data set [4] is described as follows: Stability assessment at 40° C./75% RH (open vial / double bagged open vial). Conditions: 4-to-5-week period. Here is the method:
FIG. 62 depicts the XRPD diffractogram overlay of the time point monitoring of 2-A (open vial) at 75% RH at 40° C. Overlay of, from bottom to top, the tabernanthalog monofumarate (Sample Reference 1, t=0), 2-A1 (t=3 h), 2-A2 (t=24 h), 2-A3 (t=48 h), 2-A4 (t=7 days), 2-A5 (t=2 weeks), 2-A6 (t=3 weeks), 2-A7 (t=4 weeks), 2-A8 (t=5 weeks).
FIG. 63 depicts the XRPD diffractogram overlay of the time point monitoring of 2-B (double bagged open vial) at 75% RH at 40° C. Overlay of, from bottom to top, the tabernanthalog monofumarate salt (Sample Reference 1, t=0), 2-B1 (t=3 h), 2-B2 (t=24 h), 2-B3 (t=48 h), 2-B4 (t=7 days), 2-B5 (t=2 weeks), 2-B6 (t=3 weeks), 2-B7 (t=4 weeks), 2-B8 (t=5 weeks).

Data set [5] in a line: Stability examination of supplied monofumarate material at 40° C./75% RH (Example 5, Experiment Reference 2). Particulars: 75% RH at 40° C., up to 5 w.
The nature of data set [6]: Qualitative solubility screen of the tabernanthalog monofumarate salt in solvents (Example 5, Experiment Reference 1; Example 2). As for the experimental part: Consistent with Example 1, samples were dissolved in various solvents/solvent systems and cooled to isolate solid material.
Tabernanthalog fumarate dissolved at 5 vol (200 mg/mL) only at reflux in two solvents, water and methanol. At 15 vol the product dissolved in both refluxing butanol and ethanol. Consistent with Example 1, the dissolved samples were cooled. On cooling, each of the four effective solvents yielded solid material. The solids thus obtained were analyzed by XRPD yielding diffractograms with novel peaks from products isolated from each of the four protic solvents.
The tabernanthalog monofumarate salt (Pattern #1, Sample Reference 1, 25 mg, 1 wt) was weighed out in 20 separate vials to qualitatively examine the solubility in an array of diverse solvents. […] If insoluble at 5 vol, the solvent quantity was increased to 10 vol, 15 vol and 20 vol of the respective solvent. […] The insoluble suspensions were additionally worked up for XRPD analysis. The resultant powder patterns were subsequently cross-referenced against the input supplied material.

[7] abbreviates: Amorphisation activity: Antisolvent/N2 Flow, 50 mg.
Setting [8] is: Amorphisation activity: Freeze dry, 50 mg.
[9] abbreviates: Amorphisation activity: HFIP Evaporation, 50 mg.
The mark [10] stands for this setting: Amorphisation activity: Milling, 50 or 100 mg.
Where [11] appears, read: Amorphisation activity: Rotary Vac (MeOH), 50 mg.
Where [12] appears, read: Amorphisation activity: Spray drying (15% EtOH/Water), 100 mg.
Setting [13] is: Amorphisation activity: Spray drying (MeOH), 100 mg.
Setting [14] is: Amorphisation activity: THF/N2, 50 mg.

As for `C/C=C/C=C/C(=O)O.COc1ccc2c3c([nH]c2c1)CCN(C)CC3` [Experiment 1-Sample D1], the “form by XRPD after standing overnight in ambient conditions” value in data set [1] (amorphous input, overnight, ambient conditions) was “crystalline material”.
On to `COc1ccc2c3c([nH]c2c1)CCN(C)CC3` [Tabernanthalog•Sorbate], for which the Outcome result in data set [1] (amorphous Experiment 1-Sample D1 standing overnight, ambient) is reported as “Crystalline”; in data set [2] (Hot plate heat up, sorbate 20 to 170 ° C., monofumarate 20 to 210 ° C.) it was “Amorphous”; in data set [2] (Hot stage plate heat up, sorbate 20 to 170 ° C., monofumarate 20 to 210 ° C.) it was “Amorphous”; in data set [2] (Open Pan DSC, sorbate 20 to 165 to −20, O/N 20 to 230 ° C., monofumarate 20 to 210 to −20, O/N 20 to 210 ° C.) it was “Amorphous”; in data set [2] (Sealed DSC, sorbate 20 to 165 to −20 to 230 ° C., monofumarate 20 to 210 to −20 to 210 ° C.), “Amorphous”; in data set [2] (TGA, sorbate 20 to 165 to −20 to 230 ° C., monofumarate 20 to 210 to −20 to 210 ° C.), “Amorphous”. The Outcome entry was “Crystalline” in data set [3] (setting [7]); “Crystalline” in data set [3] (setting [8]); “Crystalline and Gum” in data set [3] (setting [9]); “Crystalline” in data set [3] (setting [10]); “Crystalline” in data set [3] (setting [11]); “Crystalline” in data set [3] (setting [12]). The Outcome entry in data set [3] (setting [13]) and in data set [3] (setting [14]) was “Crystalline” each time. The “Glass temperature (Tgs)” value in data set [2] (amorphous form generated in situ, sealed DSC thermocycle (Sample B1)) was found to be 22 °C. The “Form by XRPD” value in data set [3] (setting [7]) was “Form A”; in data set [3] (setting [8]), “Form A”; in data set [3] (setting [9]), “Pattern #7”; in data set [3] (Amorphisation activity: Hot Melt Extrusion (Overnight), 250 mg) it was “Form A”; in data set [3] (Amorphisation activity: Hot Melt Extrusion, 250 mg), “Form A”; in data set [3] (setting [10]), “Form A”. For the same compound, the “Form by XRPD” value in data set [3] (setting [11]), in data set [3] (setting [12]), in data set [3] (setting [13]) and in data set [3] (setting [14]) was “Form A” each time.
Consider `COc1ccc2c3c([nH]c2c1)CCN(C)CC3` [tabernanthalog monofumarate Pattern #1], for which, in data set [4], the stability assessment entry was “no evidence for hydrate formation, chemical degradation or disproportionation”.
For the compound `COc1ccc2c3c([nH]c2c1)CCN(C)CC3` [tabernanthalog monofumarate salt, 8-methoxy-3-methyl-1H,2H,3H,4H,5H,6H-azepino[4,5-b]indole fumarate], the “physical and chemical stability” value in data set [5] (open vial and double polyethene bagged, XRPD, HPLC, TGA, DSC, fumarate) was “physically and chemically stable”. The “change in chemical purity (HPLC)” value in data set [5] is reported as “did not show significant changes in chemical purity”. Besides, the “solubility in common solvents” value in data set [6] (variety of solvents) is “sparingly soluble in most of the common solvents investigated”. The solubility in data set [6] (water, methanol (two separate solvents), water, thermodynamic from solid, reflux, read-out: soluble in methanol/water at reflux) is at least 200 mg/mL.
